Assay results: paper PMC9065678, “BI 1015550 is a PDE4B Inhibitor and a Clinical Drug Candidate for the Oral Treatment of Idiopathic Pulmonary Fibrosis” (Frontiers in Pharmacology, 2022)
pIC50: −log10 of the molar value.

Experiments:
PDE4D = molecular target: T1, PDE4D (Homo sapiens, UniProt Q08499); assay: Recombinant PDE activity, scintillation proximity assay: PDE4D; format: biochemical; settings: human recombinant active site fragment, substrate [3H]cAMP, means from n independent experiments; read-out: IC50 PDE4D2
T1 construct: PDE4D NG_027957, AA 79–438; made in house; host or cells: SF9 insect cells (baculovirus, Bac-To-Bac, pFastbac)
T1 sequence (Q08499 381-740): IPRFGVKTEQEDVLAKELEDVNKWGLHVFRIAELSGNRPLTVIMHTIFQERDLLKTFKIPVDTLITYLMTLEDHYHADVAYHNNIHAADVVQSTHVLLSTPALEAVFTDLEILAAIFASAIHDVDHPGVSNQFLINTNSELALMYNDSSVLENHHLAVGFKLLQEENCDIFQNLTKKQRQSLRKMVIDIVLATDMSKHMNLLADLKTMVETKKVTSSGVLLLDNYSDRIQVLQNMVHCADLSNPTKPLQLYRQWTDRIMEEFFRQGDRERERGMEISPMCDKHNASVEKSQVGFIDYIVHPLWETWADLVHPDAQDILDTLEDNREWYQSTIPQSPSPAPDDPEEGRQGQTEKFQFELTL
Procedure: For the preparation of human recombinant PDEs of interest, the Bac-To-Bac baculoviral expression system from Invitrogen (Carlsbad, CA, United States) was used according to the instruction manual. […] The plasmids were transformed into DH10Bac bacteria, SF9 insect cells were transfected with the bacmid DNA, and the resulting baculoviruses were stored and used for further rounds of infections. For protein production, SF9 cells were infected until a cytopathic effect was visible (after about 72 h), the SF9 cells were harvested and broken up by 3 freeze/thaw cycles, and by shearing 10 times through a 0.1 mm cannula using a syringe. […] The Phosphodiesterase Scintillation Proximity Assays (TRKQ7090 for [^3H]cAMP, GE Healthcare Europe GmbH, Chalfont St Giles, United Kingdom, and TRKQ7100 for [^3H]cGMP, Perkin Elmer, Waltham, MA, United States) were performed essentially according to the instruction manual. […] Assay solutions containing recombinant baculoviral-expressed PDE (to give an activity of 5.000–20.000 cpm corresponding to 5–20% of total activity added), 50 mmol/L Tris/HCl pH 7.5, 8.3 mmol/L MgCl2, 1.7 mmol/L EGTA, and 10 µL radiolabeled substrate (0.05 µCi in H2O) were incubated for 1 h at 30°C (final volume 100 μL).

[1] = tested on: LPS-stimulated IL-6 release; assay: LPS-stimulated IL-6 release in rat whole blood; format: cell-based; settings: high concentrations
Procedure: Heparinized whole blood was collected from the Aorta abdominalis of WI (Han) male rats (Charles River Laboratories, Sulzfeld, Germany) and from healthy male human donors, and treated with 1 µL (rat) or 2.5 µL (human) of BI 1015550 or vehicle [final DMSO concentration 0.5% (v/v)]. Final assay volumes were 200 μL (rat) and 500 μL (human). After incubation for 30 min at 37°C, 95% humidity, and 5% CO2, cultures were treated with LPS [final concentration 10 µg/mL (rat), 0.1 µg/mL (human)] or saline. After 7 h, plates were centrifuged at 3.200 × g at 4°C for 10 min and plasma was used for cytokine measurement. Meso Scale Discovery (MSD) (Rockville, MD, United States) rat and human pro-inflammatory panels were used for detection of TNF-α and IL-6 in rat plasma [diluted 1:2 (v/v)]) and human plasma [negative control undiluted, other samples diluted 1:200 (v/v)] according to the manufacturer’s instructions.

[2] = tested on: LPS-induced TNF-α release in whole blood ex vivo; assay: LPS-induced TNF-α release in whole blood ex vivo in mice; parameters: species or system mouse
Procedure: BI 1015550 was suspended in H2O plus three equivalents’ HCl (i.e. 66 µL HCl per mg of drug substance) to concentrations of […]. Female NMRI mice from Charles River (25–30 g) were used. Either vehicle (H2O plus three equivalents’ HCl) or BI 1015550 was administered orally (by gavage) in a volume of 10 mL/kg body weight resulting in final doses of 3.0, 1.0, 0.1, and 0.01 mg/kg body weight. 2 h after administration, the animals were anesthetized and blood was drawn by retroorbital puncture with heparinized capillaries before sacrifice by cervical dislocation. Blood was collected in Lithium-Heparin Microvettes® for anticoagulation. 100 µL of whole blood was pipetted into an Eppendorf tube containing either LPS solution (final concentration 900 ng/mL) or solvent. Subsequently, the samples were placed for 4 h in an incubator at 37°C, […], and 95% humidity before plasma was prepared by a two-step centrifugation at 10.840 × g over 10 min at 4°C. TNF-α concentrations in the plasma samples were determined using a commercially available TNF-α ELISA kit (BD OptEIA™ Mouse TNF ELISA Set from Becton Dickinson) according to the manufacturer’s instructions.

α-SMA protein expression = α-SMA protein expression of TGF-β-stimulated IPF lung fibroblasts (Western blot replacement assay); format: cell-based, human
Procedure: Fibroblasts from donors with IPF (IPF-LF) (Asterand, Detroit, MI, United States) were grown in fibroblast basal medium (CC-3131, Lonza Walkersville, Inc., Walkersville, MD, United States) supplemented with FGM-2 SingleQuot Kit Supplements and Growth Factors (CC-4126, Lonza). Cells were grown in a humidified incubator at 37°C and 5% CO2. All assays were performed at passage 7 or 8. For assay set-up, cells were seeded in fibroblast growth medium plus supplements in assay-relevant densities. For TGF-β-stimulated assays, cells were seeded at 4,500 cells per well in 96-well plates. Proliferation assays were performed in 96-well plates at an initial seeding cell density on day 0 of 2,000 cells per well. After 24-h, the cell culture medium was changed to starvation medium (fibroblast basal medium without supplements). After a 24-h starvation period, cells were pre-incubated for 30 min with different concentrations of BI 1015550 plus/minus different concentrations of nintedanib and/or 1 nmol/L PGE2 and stimulated with the assay-relevant stimulus for the indicated time in the presence of the compound.
For determination of α-SMA protein expression, IPF-LF cells were stimulated with TGF-β (4 ng/mL) for 48 h. Lysates were assayed in a Western blot replacement assay (MSD). In short, lysates were pipetted onto high binding plates (MSD) and were sequentially incubated with a mouse anti-human α-SMA antibody (Sigma Aldrich) and an anti-mouse sulfo-tag antibody (MSD). For analysis, an MSD sector imager was used.

## [O-][S+]1CCc2nc(N3CCC(c4ncc(Cl)cn4)CC3)nc(NC3(CO)CCC3)c21 (stereo not shown) [BI 1015550]
PDE4D
  pIC50: 7.04
[1]
  Increase of IL-6 compared with LPS-treated samples without PDE4 inhibitor: fourfold
[2]; 0.01 mg/kg p.o.
  TNF-α concentration in plasma, inhibition in % given as negative number: −38%
[2]; 0.1 mg/kg p.o.
  TNF-α concentration in plasma, inhibition in % given as negative number: −50%
[2]; 1.0 mg/kg p.o.
  TNF-α concentration in plasma, inhibition in % given as negative number: −83%
[2]; 3 mg/kg oral, initial experiment, data not shown
  Inhibition of TNF-α: 93%
[2]; oral, blood taken 2 h after administration, LPS 4 h
  ED50 of LPS-induced TNF-α release: 0.04 mg/kg
α-SMA protein expression; TGF-β (4 ng/mL, 48 h)-stimulated IPF-LF
  pIC50: 6.68
α-SMA protein expression; combination with nintedanib 10–100 nmol/L
  Additional inhibitory efficacy on α-SMA protein expression in combination: did not result in additional inhibitory efficacy
α-SMA protein expression; combination with pirfenidone (100 µmol/L), data not shown
  Additional inhibitory effects in combination, myofibroblast transformation assay: did not yield any additional inhibitory effects
